“And” between values parts separate entries of the source, which are not always exact repeats. Identical values can stand only once.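 Results reflect a 48-hour exposure of cells in 96-well plates to compound at five concentrations. The concentration for 50% growth inhibition is given as GI50.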 The source made the active and inactive calls. Rule as the data show it: active = GI50 up to about 1.1 µM and inactive = higher.

Results on 13 compounds are retold here after ChEMBL document CHEMBL1201862, “PubChem BioAssay data set” (2004).

Test in all cases: NCI tumour cell line growth inhibition, 48 h
In test [1] the test system is HOP-62.
Test [2] relates to EKVX.
The subject of test [3] is SK-MEL-28.
The test system of test [4] is HOP-92.
The test system of test [5] is UACC-62.
The subject of test [6] is SF-268.
Test [7] concerns HCT-15.
Test [8] concerns HT-29.
Test [9] concerns SNB-75.
Test [10] deals with KM12.
In test [11] the test system is LXFL 529.
In test [12] the test system is SF-539.
For test [13], the system named is MOLT-4.
Test [14] concerns A549.
In test [15] the test system is XF498.
The subject of test [16] is KM-20L2.
Test [17] has as its system DU-145.
The subject of test [18] is NCI/ADR-RES.
The test system of test [19] is A498.
In test [20] the test system is PC-3.

With `Nc1nnc(N)n1N`, the GI50 in [1], in [2], in [3], in test [4], in [5] and in test [6] was > 100 µM (inactive) throughout. Also, the GI50 in [7] is above 100 µM; in test [8], > 100 µM (inactive); in test [9], > 100 µM (inactive); in [10] it was > 100 µM (inactive); in [11] it was > 100 µM (inactive); in test [12] it was > 100 µM (inactive). In addition, the GI50 was > 100 µM (inactive) in test [13], > 100 µM (inactive) in [14] and 28.8 µM (inactive) in [15].
Regarding `O=C(c1ccc(NCN2C(=O)CCC2=O)cc1)c1ccc(NCN2C(=O)CCC2=O)cc1`, the GI50 in [1], in [2], in [3], in [4], in test [5] and in [6] was > 100 µM (inactive) throughout. The GI50 in [7] was 45.2 µM; in test [8] it was > 100 µM (inactive); in [10], > 100 µM (inactive); in test [11], > 100 µM (inactive); in test [16], > 100 µM (inactive); in [12], > 100 µM (inactive). The GI50 in test [13], in test [14] and in test [15] was > 100 µM (inactive) each time.
As for `O=c1c(Cl)c(Cl)cnn1-c1ccccc1`, the GI50 in test [1] is 15 µM (inactive) and 8.49 µM (inactive); in [17] it was 14.7 µM (inactive) and 12.5 µM (inactive); in [3] it was 3.4 µM (inactive) and 2.3 µM (inactive); in [5] it was 1.67 µM (inactive) and 2.21 µM (inactive); in test [6] it was 5.05 µM (inactive) and 6.64 µM (inactive); in test [7], 2.35 µM and 1.85 µM. Besides, the GI50 in [10] is 8.91 µM (inactive) and 7.94 µM (inactive); in [11] it was 1.67 µM (inactive) and 1.71 µM (inactive); in test [18], 2 µM (inactive); in test [19], 14.9 µM (inactive) and 17.1 µM (inactive); in test [13], 1.82 µM (inactive) and 1.47 µM (inactive); in [14], 20.3 µM (inactive) and 10.8 µM (inactive). Also, the GI50 in test [15] is 2.46 µM (inactive).
In the case of `Cc1c2cnccc2c(C)c2c1c1ccccc1n2CCOC(=O)c1ccccc1`, the GI50 was 28.6 µM (inactive) in [20]; 13.2 µM (inactive) in test [1]; 13.3 µM (inactive) in [2]; 25.6 µM (inactive) in [17]; 15.2 µM (inactive) in test [3]; 27.7 µM (inactive) in test [4]. The GI50 is 11.9 µM (inactive) in test [5]; 11.4 µM (inactive) in [6]; 11.9 µM in test [7]; 16.4 µM (inactive) in test [8]; 22.9 µM (inactive) in test [9]; 12.5 µM (inactive) in [10]. The GI50 in test [16] is 6.44 µM (inactive); in test [12], 6.21 µM (inactive); in [18] it was 8.49 µM (inactive); in [19] it was 1.75 µM (inactive); in test [13], 5.25 µM (inactive); in test [14], 10.8 µM (inactive). Also, the GI50 in [15] was 3.27 µM (inactive).
Consider `CN(C)[C@@H]1C(O)=C(C(N)=O)C(=O)[C@@]2(O)C(O)=C3C(=O)c4c(O)cccc4C[C@H]3C[C@@H]12`, for which the GI50 was 2 µM (inactive) in test [1]; 1.77 µM (inactive) in test [3]; 2.26 µM (inactive) in test [4]; 1.72 µM (inactive) in test [5]; 1.73 µM (inactive) in test [6]; 4.8 µM in test [7]. Moreover, the GI50 in test [8] was 1.87 µM (inactive); in test [9] it was 1.61 µM (inactive); in [10] it was 2.13 µM (inactive); in [11], 1.92 µM (inactive); in [16], 2.19 µM (inactive); in [12] it was 2 µM (inactive). Besides, the figures for the GI50 in test [19], in test [13] and in test [14] were 2.2 µM (inactive), 2.45 µM (inactive) and 2.32 µM (inactive), respectively.
With `COC(=O)c1ccc(CS(=O)(=O)c2ccccc2)cc1`, the GI50 in [1] is > 100 µM (inactive); in [2], > 100 µM (inactive); in test [3], > 100 µM (inactive); in test [4], > 100 µM (inactive); in test [5], 99.8 µM (inactive); in test [6] it was > 100 µM (inactive). For the same compound, the GI50 in test [7] was 39.5 µM; in test [8], 40.8 µM (inactive); in [9] it was 48.3 µM (inactive); in [10] it was 51.9 µM (inactive); in test [11] it was > 100 µM (inactive); in test [16] it was 61.5 µM (inactive). Moreover, the GI50 in [12] was > 100 µM (inactive); in test [13], > 100 µM (inactive); in test [14], 67.8 µM (inactive); in test [15], > 100 µM (inactive).
For the compound `COc1ccc(C2=NN(c3ccccc3)C[N+](c3ccc(OC)cc3)=N2)cc1`, the GI50 in test [1] is 66.1 µM (inactive); in test [2], 33.8 µM (inactive); in test [3] it was 26.9 µM (inactive); in test [6] it was 35.9 µM (inactive); in [7], 43.7 µM; in test [8], 57.3 µM (inactive). The GI50 in [10] is 21.3 µM (inactive); in [11], 17.2 µM (inactive); in [16], 29.6 µM (inactive); in [19] it was > 100 µM (inactive); in test [13] it was 20.3 µM (inactive); in [14], 48 µM (inactive). Besides, the GI50 in [15] is 18.8 µM (inactive).
For the compound `CN1N=C2c3ccccc3CC[C@H]2C1c1ccccc1` (stereo partly drawn), the GI50 in test [1] was 47.9 µM (inactive); in test [2] it was 49.3 µM (inactive); in test [3], > 100 µM (inactive); in [4], 5.25 µM (inactive); in test [5] it was 32.3 µM (inactive); in test [6], > 100 µM (inactive). Further, the GI50 in [7] is 27 µM; in [8], 22.9 µM (inactive); in test [10] it was 36.9 µM (inactive); in test [11], 15.4 µM (inactive); in test [16] it was 36.9 µM (inactive); in [12] it was 86.5 µM (inactive). Further, the GI50 in [19] was 72.1 µM (inactive); in test [13], > 100 µM (inactive); in test [14], 35.6 µM (inactive).
Regarding `O=c1nc(NC(c2ccccc2)(c2ccccc2)c2ccccc2)ccn1CCO`, the GI50 in [1] was > 100 µM (inactive); in test [2], 81.8 µM (inactive); in test [3], > 100 µM (inactive); in test [4], 41.4 µM (inactive); in test [6], 66.4 µM (inactive); in [7], 63.5 µM. In addition, the GI50 in [8] is 60 µM (inactive); in [9] it was 40.8 µM (inactive); in test [10], 60.3 µM (inactive); in test [11], 63.4 µM (inactive); in test [16], > 100 µM (inactive); in test [12], > 100 µM (inactive). Besides, the GI50 is > 100 µM (inactive) in test [19], 29.9 µM (inactive) in [13] and 41.1 µM (inactive) in [14].
Consider `CCOC(=O)Cn1c(=O)n(C)c(=O)c2[nH]cnc21`, for which the GI50 in [1], in test [2], in test [3], in test [4], in test [5] and in [6] was > 100 µM (inactive) in each case. Further, the GI50 in [7] is above 100 µM; in test [8], > 100 µM (inactive); in test [9] it was > 100 µM (inactive); in test [10], > 100 µM (inactive); in [11] it was > 100 µM (inactive); in [12], > 100 µM (inactive). The GI50 in [19], in [13], in test [14] and in [15] was > 100 µM (inactive) in each case.
`COc1ccccc1/C=C1\C(=O)N(C(=O)Cc2ccccc2)N=C1C`: the GI50 in [1] is > 100 µM (inactive); in test [2] it was > 100 µM (inactive); in test [3] it was > 100 µM (inactive); in test [6], > 100 µM (inactive); in test [7], above 100 µM; in test [8] it was > 100 µM (inactive). The GI50 in [9], in test [10], in [12], in [13], in test [14] and in test [15] was > 100 µM (inactive) each time.
On to `O=C(Cc1ccccc1)NN1C(=O)C(Cl)C1c1ccc([N+](=O)[O-])cc1` (stereo not drawn), for which the GI50 in [1] is > 100 µM (inactive); in test [2], > 100 µM (inactive); in test [3] it was > 100 µM (inactive); in [5], > 100 µM (inactive); in test [6] it was > 100 µM (inactive); in test [7], 45.5 µM. The GI50 in [8] is > 100 µM (inactive); in test [9], 93.8 µM (inactive); in [10], > 100 µM (inactive); in test [11], 95.9 µM (inactive); in test [16] it was > 100 µM (inactive); in test [13] it was 53.2 µM (inactive). Further, the GI50 in test [14] and in [15] was > 100 µM (inactive) each time.
With `O=C1CC(O)(c2ccccc2)C(c2ccccc2)=C1c1ccccc1` (stereo not drawn), the GI50 was 38.2 µM (inactive) in test [1]; 40.9 µM (inactive) in test [2]; 39.8 µM (inactive) in [3]; 17.3 µM (inactive) in test [4]; 29.5 µM (inactive) in test [5]; 37.7 µM (inactive) in [6]. The GI50 in [7] was 32.3 µM; in test [8], 42.8 µM (inactive); in [9], 27.8 µM (inactive); in test [10], 37.9 µM (inactive); in test [11], 35.3 µM (inactive); in [16], 41.8 µM (inactive). For the same compound, the GI50 is 25.2 µM (inactive) in [13], 39.1 µM (inactive) in test [14] and 24.4 µM (inactive) in test [15].
